Assay results published in patent publication US5855906A, “Intravaginal drug delivery devices for the administration of 17β-oestradiol precursors” (priority 1994, dated 1999).
Converted amounts (≈) assume the structure as drawn. “Also recorded” adds a separate entry of the source. Read-outs that look alike come from different tables or passages of the source.

Key:
[1] = In vitro release from rings of varying core length and apparent/standard k value (Crank's equation); format: physicochemical; parameters: Standard k: unit not given here; settings: for apparent k value versus core length: Table 3 rings; for apparent k value versus core length / k: 1% (w/v) BKC; for Mean Daily Release / Standard k: Table 4; for Mean Daily Release / Mean Daily Release (as precursor): n = 5; for k (standard k) / k (using core of 141 mm length): Table 5; for k: in µg/day/mm; for Mean Daily Release (as precursor): 250 ml 1% (w/v) BKC
Text: Precursor release from a cylindrical device of core design, which comprises a polymer matrix in the form of a core incorporating 17β-oestradiol precursor and a sheath surrounding the core, can be described by Crank's equation: [formula] in which R=precursor release rate (μg/day)
Crank's equation relates the precursor release rate (R), in sink conditions, to the solubility (C2 S) and diffusibility (D) of the precursor in the polymer matrix, its partition characteristics (π) between the polymer matrix and the dissolution medium; and the ring dimensions (l, b, a). For any given precursor in any given polymer matrix, CS, D and π will be constant and can be grouped together to form the composite constant, k:
The k value can be empirically derived using Crank's equation in the following manner: [formula]
The k value is dependent on core length for certain of the 17β-oestradiol precursors (see Example 6 hereinafter). Accordingly, the k value at a core length of 35 mm has been denoted "standard k" value hereinafter.
Intravaginal drug delivery devices in the form of rings were prepared, each with a ring geometry as described in Table 3, by following the General Method of Manufacture set out hereinabove.
The dissolution medium was changed daily, following the protocol set out hereinabove. Mean daily release rates from the second week of dissolution experiments were used to determine the apparent k values presented in Table 3.
It was, therefore, decided to determine k values at a core length of 35 mm and such k values are hereinafter referred to as "standard k" values.
The standard k value was determined from the mean daily release rates observed in Example 6. The dissolution medium of 1.0% (w/v) of an aqueous solution of benzalkonium chloride was used in respect of the various 17β-oestradiol precursors, so as to ensure sink conditions.

[2] = Nominal in vitro daily release from intravaginal rings under sink conditions (1% w/v benzalkonium chloride, 37 °C); format: physicochemical; settings: "100 μg" ring, core 2×141 mm
Method: The nominal in vitro release rates set out in Table 1 for the rings of Examples 1-5 were determined under sink conditions of 1% (w/v) benzalkonium chloride. These release rates were determined in the following manner.
Each ring (n=4) was suspended in the dissolution medium in an individual flask which is then capped, placed in a suitable oven at 37° C. and shaken. The dissolution medium was changed every 24 hours (±30 minutes). An aliquot of the used dissolution medium was analysed by high performance liquid chromatography (HPLC) using reverse phase packing and UV detection (at 235 nm for 17β-oestradiol-3-acetate and for
. The sensitivity of the original and improved analytical methods is 5 μg/100 ml.

[3] = In vitro dissolution: mean daily release from full-length-core rings over up to 90 days in three media; format: physicochemical; parameters: key to Mean Daily Release: **: Not detected; settings: 9 × 54 mm ring, core 141 × 2 mm, 37 °C, N = 4
Text: In all cases the ring geometries comprise a ring of dimensions 9 mm (cross-sectional diameter)×54 mm (outer diameter) and containing a full length core (141 mm) of cross-sectional diameter 2 mm. […] The saline and benzalkonium chloride-containing media were chosen to ensure `sink conditions` in at least one medium for each intravaginal ring. It will be recognised by those skilled in the art that the term `sink conditions` refers to that set of experimental conditions in vitro which effectively simulates the active haemoperfusion that occurs in vivo, and which results in a maximum drug concentration gradient and maximum drug diffusion rate, at any given time, across the aqueous boundary layer. Thus, an in vitro dissolution experiment can be designed such that the solution solubility of the released drug in the dissolution medium is much greater than its bulk concentration in this medium at any given time, for example, by micellar drug solubilisation due to incorporation of a surfactant such as benzalkonium chloride (BKC), at a concentration above its critical micelle concentration. Thus, each ring was suspended by a thread in an individual closed flask containing the dissolution medium, maintained at a constant temperature of 37° C. The contents of the flask were gently agitated in order to prevent the occurrence of a hydrostatic layer on the surface of the ring. After 24 hours, the ring was removed and suspended in a flask of fresh dissolution medium of identical volume by a method identical to that previously described.

[4] = Silicone solubility at 37 °C in Dow Corning 360 medical fluid; format: physicochemical; settings: organic solvent or mixture
Method: Silicone solubility was determined at 37° C. in Dow Corning (Trade Mark) 360 medical fluid.

[5] = Aqueous solubility in distilled water at 20 °C; settings: for requisite aqueous solubility (not less than 1 μg per 100 ml): 20 °C
[6] = In vitro plasma hydrolysis (stability in human blood at 37 °C)
physchem = settings: distilled water
[7] = compiled from Novel Drug Delivery Systems (Chien); cited from earlier work
[8] = 17β-oestradiol ring; EP 0 253 109 0.5 to 25 μg per day; Smith et al 5 to 10 μg per day; cited from earlier work
[9] = cited from earlier work
[10] = non-oral preparations, read-out: plasma levels of 17β-oestradiol, cited from earlier work
[11] = shell ring; cited from earlier work
[12] = shell ring, 58 mm × 9.5 mm; cited from earlier work
[13] = 1.0% (w/v) BKC, core length 35 mm
[14] = core length 35 mm, 1.0% (w/v) BKC

SMILES: CC(=O)O[C@H]1CC[C@H]2[C@@H]3CCc4cc(O)ccc4[C@H]3CC[C@]12C
- apparent k value versus core length [1]: varies with core length
- Mean Daily Release [1, 13]: 19.50 µg/day
- Standard k [1, 14]: 0.838
- k (standard k) ([1]; core length 35 mm): 0.838 μg/day/mm
- k ([1]; core length 35 mm): 0.8380
- Mean Daily Release (as precursor) ([1]; core length 35 mm): 19.50 µg/day
- k ([1]; core length 70 mm): 0.8797
- Mean Daily Release (as precursor) ([1]; core length 70 mm): 40.94 µg/day
- k ([1]; core length 140 mm): 0.9395
- Mean Daily Release (as precursor) ([1]; core length 140 mm): 87.45 µg/day
- nominal in vitro daily release rate [2]: 100 µg
- Mean Daily Release ([3]; 0.9% (w/v) saline): 24 μg per day
- Mean Daily Release ([3]; 1.0% (w/v) BKC): 96 μg per day
- solubility ([4]; Dow Corning 360 medical fluid, 37 °C, read-out: Silicone solubility): 17 µg/mL (≈ 54.1 µM)
- solubility ([5]; water): 0.12 µg/mL (≈ 0.382 µM)
- half-life [6]: 4 h

SMILES: CCC(=O)O[C@H]1CC[C@H]2[C@@H]3CCc4cc(O)ccc4[C@H]3CC[C@]12C
- apparent k value versus core length [1]: varies with core length
- Mean Daily Release [1, 13]: 42.86 µg/day
- Standard k [1, 14]: 1.842
- k (standard k) ([1]; core length 35 mm): 1.842 μg/day/mm
- k ([1]; core length 17 mm): 2.130
- Mean Daily Release (as precursor) ([1]; core length 17 mm): 24.08 µg/day
- k ([1]; core length 35 mm): 1.842
- Mean Daily Release (as precursor) ([1]; core length 35 mm): 42.86 µg/day
- k ([1]; core length 70 mm): 1.795
- Mean Daily Release (as precursor) ([1]; core length 70 mm): 83.54 µg/day
- k ([1]; core length 140 mm): 1.667
- Mean Daily Release (as precursor) ([1]; core length 140 mm): 155.20 µg/day
- Mean Daily Release ([3]; 0.133% (w/v) BKC): 112 μg per day
- Mean Daily Release ([3]; 0.9% (w/v) saline): 26 μg per day
- Mean Daily Release ([3]; 1.0% (w/v) BKC): 218 μg per day
- solubility (physchem): 0.05 µg/mL (≈ 0.152 µM)

SMILES: CCC(=O)Oc1ccc2c(c1)CC[C@@H]1[C@@H]2CC[C@]2(C)[C@@H](O)CC[C@@H]12
- Mean Daily Release ([1]; 0.9% (w/v) saline, core length 35 mm): 250 to 350 µg/day
- Mean Daily Release [1, 13]: 300.00 µg/day
- Standard k [1, 14]: 12.89
- k (standard k) ([1]; core length 35 mm): 12.89 μg/day/mm
- k ([1]; core length 35 mm): 12.89
- Mean Daily Release (as precursor) ([1]; core length 35 mm): 300.00 µg/day
- k ([1]; core length 70 mm): 12.89
- Mean Daily Release (as precursor) ([1]; core length 70 mm): 600.00 µg/day
- k ([1]; core length 140 mm): 12.89
- Mean Daily Release (as precursor) ([1]; core length 140 mm): 1200.00 µg/day
- Mean Daily Release ([3]; 1.0% (w/v) BKC): 1200 μg per day
- solubility [4]: 300 µg/mL (≈ 913 µM)
- solubility (physchem): 2.3 µg/mL (≈ 7 µM)

SMILES: CCCCC(=O)O[C@H]1CC[C@H]2[C@@H]3CCc4cc(O)ccc4[C@H]3CC[C@]12C [17β-oestradiol-17-valerate, reference compound]
- k (using core of 141 mm length) [1]: 5.86 μg/day/mm
- Silicone solubility [7]: 15.02 mg/100 ml
- Mean Daily Release ([3]; 0.133% (w/v) BKC): 365 μg per day
- Mean Daily Release ([3]; 0.9% (w/v) saline): **
- Mean Daily Release ([3]; 1.0% (w/v) BKC): 550 μg per day
- requisite aqueous solubility (not less than 1 μg per 100 ml) [5]: too low; also recorded: not possessing the requisite aqueous solubility

SMILES: C[C@]12CC[C@@H]3c4ccc(O)cc4CC[C@H]3[C@@H]1CC[C@@H]2O [17β-oestradiol]
- k (using core of 141 mm length) [1]: 0.09 μg/day/mm
- alleviation of symptoms of hypo-oestrogenism (in words) [8]: symptoms in the human female arising from a hypo-oestrogenic condition can be alleviated; also recorded: effective at alleviating those symptoms associated with hypo-oestrogenism that relate specifically to atrophy of vaginal and urethral epithelium
- initial serum 17β-oestradiol level ([9]; homogeneous ring 400 mg, within one hour, 60 min): about 700 pg/ml
- mean serum 17β-oestradiol ([9]; shell ring (100, 200 or 400 mg), one hour after insertion, 60 min): 300 pg/mL
- mean serum 17β-oestradiol (in words) ([9]; shell ring, baseline 24 pg/ml): approached the baseline level of 24 pg/ml within 24 hours; also recorded: falling back to the baseline at 2 and 3 months
- Mean Daily Release ([3]; 0.9% (w/v) saline): 8 μg per day
- concentration ([10]; transdermal 50 μg per day (low dose)): ~0.2 nM
- concentration ([10]; transdermal 100 μg per day (high dose)): ~0.36 nM
- in vitro release rate of 17β-oestradiol [11]: 200 μg per day
- daily release [12]: 180 μg per day

SMILES: C#C[C@]1(O)CC[C@H]2[C@@H]3CCC4=CC(=O)CC[C@@H]4[C@H]3CC[C@@]21CC [levonorgestrel]
- daily release [12]: 290 μg per day

SMILES: C[C@]12CC[C@@H]3c4ccc(OC(=O)c5ccccc5)cc4CC[C@H]3[C@@H]1CC[C@@H]2O [reference compound]
- k (using core of 141 mm length) [1]: 0.70 μg/day/mm
- Silicone solubility [7]: 3.68 mg/100 ml
- Mean Daily Release ([3]; 0.133% (w/v) BKC): 42 μg per day
- Mean Daily Release ([3]; 0.9% (w/v) saline): < 5 μg per day
- Mean Daily Release ([3]; 1.0% (w/v) BKC): 66 μg per day
- requisite aqueous solubility (not less than 1 μg per 100 ml) [5]: not possessing the requisite aqueous solubility
